Measured values taken from US20050009837A1, “Modulators of lipid metabolism and methods of use” (City of Hope, priority 2003, published 2005).

Legend:
[1] = system: SRE reporter (FAS proximal promoter); assay: SRE reporter (FAS proximal promoter-luciferase) assay in CV-1 cells; assay type: cell-based
Experimental: Since LXR regulates SREBP-1c expression, LXR also should regulate activities downstream of SREBP-1c. To test this, CV-1 cells were transiently transfected with as in Example 6, but with the SRE or the SREm reporter, SREBP-1c-dependent reporter constructs consisting of the FAS proximal promoter linked to the luciferase gene. […] See Wang et al., Mol. Cell 3:543-553, 1999, the disclosures of which are hereby incorporated by reference. Cells then were treated as in Example 6 with the indicated compounds, Clotrimazole or 25-hydroxycholesterol (25-OH cholesterol). 25-OH cholesterol is known to repress the synthesis of SREBP-1c and is therefore used to eliminate the effects of this transcription factor on the FAS promoter (SRE).

[2] = molecular target: T1, human LXRα (Homo sapiens, UniProt Q13133); assay: Full-length hLXRα/hRXRα LXREx3 TK-Luc reporter assay in transfected CV-1 cells; assay type: cell-based; settings: 20 μM, 40 hours
T1 construct: expressed in transfected cells; host or cells: CV-1 cells
T1 sequence (Q13133 1-447): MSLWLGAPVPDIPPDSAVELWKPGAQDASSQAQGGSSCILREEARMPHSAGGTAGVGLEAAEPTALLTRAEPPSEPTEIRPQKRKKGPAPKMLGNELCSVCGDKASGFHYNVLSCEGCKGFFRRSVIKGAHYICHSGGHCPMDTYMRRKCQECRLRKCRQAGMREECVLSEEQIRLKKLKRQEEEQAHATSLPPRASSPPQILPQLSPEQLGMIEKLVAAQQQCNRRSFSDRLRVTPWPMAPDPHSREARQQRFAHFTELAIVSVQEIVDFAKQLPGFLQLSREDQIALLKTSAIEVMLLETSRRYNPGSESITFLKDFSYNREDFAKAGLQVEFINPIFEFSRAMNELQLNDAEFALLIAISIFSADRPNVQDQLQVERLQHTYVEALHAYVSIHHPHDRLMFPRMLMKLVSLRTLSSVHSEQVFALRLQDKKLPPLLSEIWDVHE
T1 sequence (P19793 1-462 partner): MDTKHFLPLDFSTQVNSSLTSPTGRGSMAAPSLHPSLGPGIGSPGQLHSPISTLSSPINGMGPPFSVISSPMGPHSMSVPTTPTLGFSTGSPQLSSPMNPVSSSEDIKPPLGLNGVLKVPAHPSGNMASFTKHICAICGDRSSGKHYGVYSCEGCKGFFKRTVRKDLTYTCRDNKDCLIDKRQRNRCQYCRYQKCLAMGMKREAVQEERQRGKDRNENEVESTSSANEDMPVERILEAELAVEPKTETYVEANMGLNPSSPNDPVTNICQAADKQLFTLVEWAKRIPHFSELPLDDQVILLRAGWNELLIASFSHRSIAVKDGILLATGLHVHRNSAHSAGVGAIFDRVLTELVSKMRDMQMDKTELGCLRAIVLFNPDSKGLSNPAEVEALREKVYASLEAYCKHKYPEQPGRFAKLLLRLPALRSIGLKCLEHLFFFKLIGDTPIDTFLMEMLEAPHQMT
Experimental: (§1) CV-1 cells were grown in DMEM supplemented with 10% resin-charcoal stripped fetal bovine serum, 50 U/ml penicillin G and 50 μg/ml streptomycin sulfate at 37° C. in 5% CO2. Cells were plated to 50-80% confluence one day prior to transfection using phenol red-free DMEM-FBS. The cells were transfected by lipofection using N-[1-(2,3-dioleoyloxy)propyl]-N,N,N-ammonium methyl sulfate according to manufacturer's instructions (Boehringer Mannheim).
(§2) Genes encoding the following full-length proteins, which are suitable for use in the studies described herein, were cloned into pCMX: human RXRα (Gene Bank accession X52773) and human LXRα (GenBank accession U22662). The cells were transfected with CMX-βgal and luciferase constructs. The CMX-βGal construct contained the ligand binding domain of human RXR (hRXRα) and the ligand binding domain of human LXRα (hLXRα) as indicated in FIG. 1. The luciferase reporter construct (LXREx3 TK-Luc) contained the herpes virus thymidine kinase promoter (−105/+51) linked to three copies of the response element LXRE. After transfection, the cells were treated with 20 μM of a synthetic azole test compound or vehicle alone for 40 hours in phenol red-free DMEM-FBS.

[3] = molecular target: T2, ligand binding domain of LXRα-RXR heterodimers (Homo sapiens, UniProt Q13133); assay: LXR ligand binding domain mediated activity, UASGx4 TK-Luc reporter in CV-1 cells; assay type: cell-based; settings: 20 μM
T2 construct: expressed in transfected cells; host or cells: CV-1 cells
T2 sequence (Q13133 209-447 limits assumed): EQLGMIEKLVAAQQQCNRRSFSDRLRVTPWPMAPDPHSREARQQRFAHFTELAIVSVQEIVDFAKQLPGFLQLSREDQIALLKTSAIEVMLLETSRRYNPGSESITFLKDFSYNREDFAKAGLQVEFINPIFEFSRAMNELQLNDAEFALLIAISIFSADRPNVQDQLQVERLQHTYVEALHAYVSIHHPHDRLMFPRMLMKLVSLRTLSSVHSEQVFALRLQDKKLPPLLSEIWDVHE
T2 sequence (P19793 227-458 partner limits assumed): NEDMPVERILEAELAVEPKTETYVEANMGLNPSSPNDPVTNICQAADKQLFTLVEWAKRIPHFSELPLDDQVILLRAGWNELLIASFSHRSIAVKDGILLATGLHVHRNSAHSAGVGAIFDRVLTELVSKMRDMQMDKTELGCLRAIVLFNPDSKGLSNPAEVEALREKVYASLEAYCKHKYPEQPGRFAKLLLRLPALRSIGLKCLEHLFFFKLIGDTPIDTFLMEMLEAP
Experimental: as §1
as §2, with “DMEM-FBS. After exposure to the candidate antagonist compounds, cells were harvested and assayed for luciferase and β-galactosidase activity.” for “DMEM-FBS.”
The reporter gene was UASGx4 TK-Luc.

[4] = molecular target: T3, LXRα-RXR heterodimers and receptor interaction domains of coactivator SRC1 (Homo sapiens, UniProt Q13133); assay: LXR-coactivator association, VP-L-hLXRα / L-hRXRα / GAL4-SRC1 in CV-1 cells; assay type: cell-based; settings: 20 μM, coactivator GAL4-SRC1, CV-1 cells
T3 construct: expressed in transfected cells; host or cells: CV-1 cells
T3 sequence (Q13133 209-447 limits assumed): T2 sequence (Q13133 209-447 limits assumed)
T3 sequence (P19793 227-458 partner limits assumed): T2 sequence (P19793 227-458 partner limits assumed)
Experimental: as §1, §2
VP-L-hLXRα contains the transactivation domain of Herpes VP16, linked to the LBD of human LXRα, L-hRXRα is the LBD of human RXRα. UASGx4 TK-Luc was the reporter gene, and the assay additionally included the coactivator GAL4-SRC1. Treatment with 20 μM azole compound as indicated was able to inhibit interactions between LXRα-RXR heterodimers and the receptor interaction domains from the coactivator SRC1.

[5] = molecular target: T4, LXRα (Homo sapiens, UniProt Q13133); assay: Transient transfection assay Gal-hLXRα + RXR LBD, UASGx4 TK Luc reporter, CV-1 cells; assay type: cell-based; settings: 10 μM; for repression of LXRα activity: approximately 40 hours, lipid-stripped serum; for less effective than Clotrimazole in repressing LXRα: relative to Clotrimazole
T4 construct: expressed in transfected cells; host or cells: CV-1 cells
T4 sequence (Q13133 209-447 limits assumed): T2 sequence (Q13133 209-447 limits assumed)
T4 sequence (P19793 227-458 partner limits assumed): T2 sequence (P19793 227-458 partner limits assumed)
Experimental: (§3) Synthetic compounds were screened in an effort to find more specific LXR inhibitors. CV-1 cells were maintained and transfected using known methods. Forman et al., Cell 81: 687-693, 1995. CV-1 cells were transiently transfected with Gal-hLXRα, the RXR LBD, the UASGx4 TK Luc reporter and CMX-β-gal as an internal control, either in standard or in lipid-stripped serum. After transfection, cells were treated for approximately 40 hours with phenol red-free DMEM-FBS containing the indicated compounds at the following concentrations: T0901317 (100 nM), Clotrimazole (10 μM), S883417(10 μM) and S100250 (10 μM), unless otherwise specified. After exposure to ligand, the cells were harvested and assayed for luciferase and β-galactosidase activity. The luciferase activity was normalized to the internal β-galactosidase control (reporter activity).
(§4) The ability of these compounds to repress LXRα and LXRβ was compared by transfecting CV-1 cells with either the RXR LBD alone or the RXR LBD together with either Gal-LXRα or Gal-LXRβ.
(§5) Transfections were performed as described above, with increasing concentrations of Clotrimazole.

[6] = molecular target: T5, LXRβ (Homo sapiens, UniProt P55055); assay: Transient transfection assay Gal-LXRβ + RXR LBD, UASGx4 TK Luc reporter, CV-1 cells; assay type: cell-based; settings: 10 μM; for repression of LXRβ activity: approximately 40 hours, lipid-stripped serum; for less effective than Clotrimazole in repressing LXRβ: relative to Clotrimazole
T5 construct: expressed in transfected cells; host or cells: CV-1 cells
T5 sequence (P55055 222-460 limits assumed): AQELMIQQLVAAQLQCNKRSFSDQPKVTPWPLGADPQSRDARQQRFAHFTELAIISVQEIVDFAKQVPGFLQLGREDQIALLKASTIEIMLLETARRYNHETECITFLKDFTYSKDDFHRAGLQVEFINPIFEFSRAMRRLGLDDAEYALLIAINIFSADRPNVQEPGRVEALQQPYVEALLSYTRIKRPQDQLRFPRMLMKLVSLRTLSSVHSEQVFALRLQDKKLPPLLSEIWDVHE
T5 sequence (P19793 227-458 partner limits assumed): T2 sequence (P19793 227-458 partner limits assumed)
Experimental: as §3, §4, §5

[7] = system: CV-1 cells; assay: Cytotoxicity in transfected CV-1 cells; settings: T0901317 100 nM; Clotrimazole, S883417, S100250 10 μM; approximately 40 hours
Experimental: as §3

Row | inhibition of constitutive activation by the LXRα-RXR ligand binding domain (UASGx4 TK-Luc) [3] | repression of LXRα activity [5] | less effective than Clotrimazole in repressing LXRα [5] | repression of LXRβ activity [6] | less effective than Clotrimazole in repressing LXRβ [6] | Structure (SMILES) | LXRα induction of SRE reporter activity ([1]; LXRα co-transfected (3-fold increase)) | LXRβ induction of SRE reporter activity ([1]; LXRβ co-expression (almost 2-fold increase)) | activity of reporter containing mutated SRE ([1]; SREm reporter) | repression of SRE reporter ([1]; absence of LXR) [%] | antagonism of constitutive activation mediated by LXR (hLXRα activity, LXREx3 TK-Luc) [2] | inhibition of LXR-coactivator association [4] | cytotoxicity [7]
1 |  |  |  |  |  | C[C@H](CCCC(C)(C)O)[C@H]1CC[C@H]2[C@@H]3CC=C4C[C@@H](O)CC[C@]4(C)[C@H]3CC[C@]12C [25-OH cholesterol, 25-hydroxycholesterol] | prevented this induction | prevented this induction | no significant effects | 50 |  |  | 
2 | inhibit constitutive activation | repressed | approximately 50% | repressed | approximately 50% | c1ccc(-c2cncn2C(c2ccccc2)(c2ccccc2)c2ccccc2)cc1 [S100250] |  |  |  |  | antagonize the constitutive activation mediated by LXR | inhibition of LXR-coactivator association | No cytotoxicity
3 | inhibit constitutive activation | repressed | approximately 50% | repressed | approximately 50% | Cl.FC(F)(F)c1cccc(C(c2ccccc2)(c2ccccc2)n2ccnc2)c1 [S883417] |  |  |  |  | antagonize the constitutive activation mediated by LXR | inhibition of LXR-coactivator association | No cytotoxicity
